Assays:
Format in all cases: biochemical
PDE1B = PDE1B (Homo sapiens (Human), UniProt Q01064); assay: PDE1 inhibition assay, PDE1B; conditions: for IC50: 15 nM tritium labelled cAMP; for inhibition at 2 µM: read-out: PDE1B, % inhibition (at 2 μM)
Method: (§1) Reactions were initiated by addition of the cyclic nucleotide substrate, and reactions were allowed to proceed for 1 h at room temperature before being terminated through mixing with 20 μL (0.2 mg) yttrium silicate SPA beads (PerkinElmer). The beads were allowed to settle for 1 h in the dark before the plates were counted in a Wallac 1450 Microbeta counter.

PDE1C = PDE1C (Homo sapiens (Human), UniProt Q14123); assay: PDE1 inhibition assay, PDE1C; conditions: for IC50: 15 nM tritium labelled cAMP
PDE1C, sequence (Q14123 whole entry): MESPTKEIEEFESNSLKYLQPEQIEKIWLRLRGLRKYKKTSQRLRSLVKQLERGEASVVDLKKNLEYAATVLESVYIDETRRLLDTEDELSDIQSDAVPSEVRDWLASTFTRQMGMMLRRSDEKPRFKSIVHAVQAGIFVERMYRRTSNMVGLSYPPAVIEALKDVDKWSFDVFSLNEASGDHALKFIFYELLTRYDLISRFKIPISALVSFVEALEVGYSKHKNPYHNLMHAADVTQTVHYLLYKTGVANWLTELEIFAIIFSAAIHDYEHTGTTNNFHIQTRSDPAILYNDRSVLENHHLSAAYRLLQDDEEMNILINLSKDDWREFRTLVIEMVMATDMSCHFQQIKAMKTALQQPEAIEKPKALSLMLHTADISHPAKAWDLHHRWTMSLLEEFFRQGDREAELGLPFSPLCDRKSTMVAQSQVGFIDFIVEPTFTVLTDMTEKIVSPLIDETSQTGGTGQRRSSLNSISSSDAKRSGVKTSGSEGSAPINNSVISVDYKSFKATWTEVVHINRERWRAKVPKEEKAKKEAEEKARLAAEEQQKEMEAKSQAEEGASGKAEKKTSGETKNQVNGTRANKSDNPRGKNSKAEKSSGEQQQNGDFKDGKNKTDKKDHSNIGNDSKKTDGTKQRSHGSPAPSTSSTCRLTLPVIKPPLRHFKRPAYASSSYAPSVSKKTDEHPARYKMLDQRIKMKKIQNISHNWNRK
Method: as §1

PDE1A = PDE1A (Homo sapiens (Human), UniProt P54750); assay: PDE1 inhibition assay, PDE1A; conditions: for IC50: 15 nM tritium labelled cAMP; for inhibition at 10 µM: read-out: PDE1A, % inhibition (at 10 μM); for inhibition at 2 µM: read-out: PDE1A, % inhibition (at 2 μM)
PDE1A, sequence (P54750 whole entry): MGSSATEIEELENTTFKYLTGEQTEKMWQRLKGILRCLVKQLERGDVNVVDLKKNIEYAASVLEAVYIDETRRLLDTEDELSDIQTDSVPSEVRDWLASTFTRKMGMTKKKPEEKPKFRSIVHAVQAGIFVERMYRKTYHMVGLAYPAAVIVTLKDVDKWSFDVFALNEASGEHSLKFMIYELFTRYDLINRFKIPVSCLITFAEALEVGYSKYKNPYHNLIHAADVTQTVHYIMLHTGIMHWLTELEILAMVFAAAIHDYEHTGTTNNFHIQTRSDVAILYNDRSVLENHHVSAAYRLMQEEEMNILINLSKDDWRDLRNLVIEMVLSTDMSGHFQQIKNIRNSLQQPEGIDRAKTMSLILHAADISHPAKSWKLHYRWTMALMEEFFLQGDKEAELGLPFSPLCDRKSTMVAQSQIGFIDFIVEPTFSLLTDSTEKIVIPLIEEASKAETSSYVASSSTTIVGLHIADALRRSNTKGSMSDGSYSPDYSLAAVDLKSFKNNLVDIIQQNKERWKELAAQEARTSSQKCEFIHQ
Method: Reactions were initiated by addition of the cyclic nucleotide substrate, and reactions were allowed to proceed for 1 h at room temperature before being terminated through mixing with 20 μL (0.2 mg) yttrium silicate SPA beads (PerkinElmer).

PDE9 = PDE9 (Homo sapiens (Human), UniProt O76083); assay: PDE9 inhibition assay
PDE9, sequence (O76083 whole entry): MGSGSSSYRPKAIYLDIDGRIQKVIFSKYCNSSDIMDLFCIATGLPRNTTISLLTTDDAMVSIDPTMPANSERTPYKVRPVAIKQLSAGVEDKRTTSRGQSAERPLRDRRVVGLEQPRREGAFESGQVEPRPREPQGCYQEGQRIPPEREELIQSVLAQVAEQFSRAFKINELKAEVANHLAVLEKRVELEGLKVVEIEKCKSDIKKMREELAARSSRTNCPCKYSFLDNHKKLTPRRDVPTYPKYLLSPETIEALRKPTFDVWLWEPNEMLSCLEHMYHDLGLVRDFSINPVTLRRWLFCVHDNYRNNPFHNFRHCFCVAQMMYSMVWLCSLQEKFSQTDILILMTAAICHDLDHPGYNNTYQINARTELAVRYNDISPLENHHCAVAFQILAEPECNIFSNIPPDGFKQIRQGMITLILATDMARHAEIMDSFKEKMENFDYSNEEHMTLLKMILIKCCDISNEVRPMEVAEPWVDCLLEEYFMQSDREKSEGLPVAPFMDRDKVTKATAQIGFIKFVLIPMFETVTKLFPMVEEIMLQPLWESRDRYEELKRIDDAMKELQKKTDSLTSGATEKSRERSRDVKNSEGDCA
Method: A PDE9 assay may for example, be performed as follows: The assay is performed in 60 μL samples containing a fixed amount of the relevant PDE enzyme (sufficient to convert 20-25% of the cyclic nucleotide substrate), a buffer (50 mM HEPES7.6; 10 mM MgCl2; 0.02% Tween20), 0.1 mg/ml BSA, 225 pCi of ^3H-labelled cyclic nucleotide substrate, tritium labeled cAMP to a final concentration of 5 nM and varying amounts of inhibitors. Reactions are initiated by addition of the cyclic nucleotide substrate, and reactions are allowed to proceed for one hr at room temperature before being terminated through mixing with 15 μL 8 mg/mL yttrium silicate SPA beads (Amersham). The beads are allowed to settle for one hr in the dark before the plates are counted in a Wallac 1450 Microbeta counter.
In the context of the present invention the assay was performed in 60 μL assay buffer (50 mM HEPES pH 7.6; 10 mM MgCl2; 0.02% Tween20) containing enough PDE9 to convert 20-25% of 10 nM ^3H-cAMP and varying amounts of inhibitors. Following a 1 hr incubation the reactions were terminated by addition of 15 μL 8 mg/mL yttrium silicate SPA beads (Amersham). The beads were allowed to settle for one hr in the dark before the plates were counted in a Wallac 1450 Microbeta counter.

PDE1B, sequence (Q01064 whole entry): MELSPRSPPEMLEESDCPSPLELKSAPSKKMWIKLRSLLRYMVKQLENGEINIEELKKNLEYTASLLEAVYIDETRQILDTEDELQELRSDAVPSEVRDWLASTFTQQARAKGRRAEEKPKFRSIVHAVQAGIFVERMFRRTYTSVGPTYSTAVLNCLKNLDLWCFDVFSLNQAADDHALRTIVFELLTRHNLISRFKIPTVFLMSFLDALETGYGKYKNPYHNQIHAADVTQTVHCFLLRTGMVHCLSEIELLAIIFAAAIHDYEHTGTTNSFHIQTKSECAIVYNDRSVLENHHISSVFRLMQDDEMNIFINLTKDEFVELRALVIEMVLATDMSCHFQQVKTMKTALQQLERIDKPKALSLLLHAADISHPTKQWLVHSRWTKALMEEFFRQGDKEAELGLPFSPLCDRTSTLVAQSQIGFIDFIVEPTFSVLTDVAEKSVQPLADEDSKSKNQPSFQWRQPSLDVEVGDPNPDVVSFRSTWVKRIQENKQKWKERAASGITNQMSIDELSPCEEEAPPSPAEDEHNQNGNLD

| SMILES | IC50 (PDE1B) [nM] | IC50 (PDE1A) [nM] | inhibition at 10 µM (PDE9) [%] | IC50 (PDE1C) [nM] | further results |
| --- | --- | --- | --- | --- | --- |
| Cc1cn2c([C@H]3CCO[C@H]3C)ncc2c(=O)n1Cc1cccc(F)c1 (single isomer, unassigned; isomer 4) [36, isomer 4] | 520 | 51 |  |  | PDE1C, % inhibition (at 1 μM) (PDE1C; at 1 μM): 40%; % inhibition of PDE9 at 10 microM (PDE9): 11% |
| Cc1cn2c(C3CCOCC3)ncc2c(=O)n1Cc1ccc(N)cc1 [Example 52, 7-(4-aminobenzyl)-6-methyl-3-(tetrahydro-2H-pyran-4-yl)imidazo[1,5-a]pyrazin-8(7H)-one] | 388 |  | -3 |  | inhibition at 1 µM (PDE1C; read-out: PDE1C, % inhibition (at 1 μM)): 10%; inhibition at 1 µM (PDE1A; read-out: PDE1A, % inhibition (at 1 μM)): 0% |
| Cc1noc(C)c1Cn1c(C)cn2c(C3CCOCC3)ncc2c1=O [Example 81, 7-((3,5-dimethylisoxazol-4-yl)methyl)-6-methyl-3-(tetrahydro-2H-pyran-4-yl)imidazo[1,5-a]pyrazin-8(7H)-one] |  |  | 36 | 2300 | inhibition at 10 µM (PDE1B; read-out: PDE1B, % inhibition (at 10 μM)): 36%; inhibition at 10 µM (PDE1A): 27% |
| Cc1cn2c([C@H]3CCCCO3)ncc2c(=O)n1Cc1cccc(F)c1 (single isomer, unassigned; isomer 2) [30, isomer 2] |  |  |  | 215 | PDE1B, % inhibition (at 1 μM) (PDE1B; at 1 μM): 40%; PDE1A, % inhibition (at 1 μM) (PDE1A; at 1 μM): 27%; % inhibition of PDE9 at 10 microM (PDE9): 28% |
| Cc1nc(Cn2c(C)cn3c(C4CCOCC4)ncc3c2=O)cs1 [Example 78, 6-methyl-7-((2-methylthiazol-4-yl)methyl)-3-(tetrahydro-2H-pyran-4-yl)imidazo[1,5-a]pyrazin-8(7H)-one] | 641 | 1690 | 6 | 251 |  |
| COc1ccc(Cn2c(C)cn3c(N4CCOC[C@H]4C)ncc3c2=O)cc1 [Example 95, (R)-7-(4-methoxybenzyl)-6-methyl-3-(3-methylmorpholino)imidazo[1,5-a]pyrazin-8(7H)-one] | 162 | 258 | 9 | 218 |  |
| O=c1c2cnc(C3CC3)n2ccn1CC1CCCC1 [Example 7, 7-(Cyclopentylmethyl)-3-cyclopropylimidazo[1,5-a]pyrazin-8(7H)-one] |  |  | 1 | 230 | inhibition at 2 µM (PDE1B): 85%; inhibition at 2 µM (PDE1A): 60% |
| COc1ccc(Cn2c(C)cn3c(C4(C)CNC(=O)C4)ncc3c2=O)cc1 (centres unmarked) [Example 75, 7-(4-methoxybenzyl)-6-methyl-3-(3-methyl-5-oxopyrrolidin-3-yl)imidazo[1,5-a]pyrazin-8(7H)-one] | 297 | 236 | 8 | 360 |  |
| Cc1cc(Cn2c(C)cn3c(C4CCOCC4)ncc3c2=O)no1 [Example 82, 6-methyl-7-((5-methylisoxazol-3-yl)methyl)-3-(tetrahydro-2H-pyran-4-yl)imidazo[1,5-a]pyrazin-8(7H)-one] | 1500 |  | 7 | 1030 | inhibition at 10 µM (PDE1A): 67% |
| COc1ccc(Cn2c(C)cn3c(N4CCOC(C)(C)C4)ncc3c2=O)cc1 [Example 98, 3-(2,2-dimethylmorpholino)-7-(4-methoxybenzyl)-6-methylimidazo[1,5-a]pyrazin-8(7H)-one] | 102 | 287 | 4 | 135 |  |
| COc1ccc(Cn2c(C)cn3c(C4CCNC(=O)CC4)ncc3c2=O)cc1 (centres unmarked) [Example 88, 7-(4-methoxybenzyl)-6-methyl-3-(7-oxoazepan-4-yl)imidazo[1,5-a]pyrazin-8(7H)-one] | 308 | 484 | -32 | 548 |  |
| COc1ccc(Cn2c(C)cn3c(N4CCCOCC4)ncc3c2=O)cc1 [Example 97, 7-(4-methoxybenzyl)-6-methyl-3-(1,4-oxazepan-4-yl)imidazo[1,5-a]pyrazin-8(7H)-one] | 82 | 202 | -8 | 128 |  |
| CO[C@H]1CC[C@H](Cn2c(C)cn3c(C4CCOCC4)ncc3c2=O)CC1 [Example 68, 7-(((trans)-4-methoxycyclohexyl)methyl)-6-methyl-3-(tetrahydro-2H-pyran-4-yl)imidazo[1,5-a]pyrazin-8(7H)-one] | 127 | 323 | 5 | 1860 |  |

Further lines, with some results ahead:

| IC50 (PDE1B) [nM] | IC50 (PDE1A) [nM] | inhibition at 10 µM (PDE9) [%] | IC50 (PDE1C) [nM] | SMILES | further results |
| --- | --- | --- | --- | --- | --- |
| 67 | 252 | 9 | 100 | O=c1c2cnc(C3CC3)n2ccn1CC1CCCCC1 [Example 8, 7-(Cyclohexylmethyl)-3-cyclopropylimidazo[1,5-a]pyrazin-8(7H)-one] |  |
|  |  | 8 | 79 | O=c1c2cnc(C3CCOCC3)n2ccn1CC1CCCC1 [Example 10, 7-(Cyclopentylmethyl)-3-(tetrahydro-2H-pyran-4-yl)imidazo[1,5-a]pyrazin-8(7H)-one] | inhibition at 2 µM (PDE1B): 88%; inhibition at 2 µM (PDE1A): 73% |
| 26 | 45 | -5 | 84 | COc1ccc(Cn2c(C)cn3c(C4CCOCC4)ncc3c2=O)cn1 [Example 57, 7-((6-methoxypyridin-3-yl)methyl)-6-methyl-3-(tetrahydro-2H-pyran-4-yl)imidazo[1,5-a]pyrazin-8(7H)-one] |  |
| 36 | 42 | 7 | 9 | Cc1cn2c(C3CCOCC3)ncc2c(=O)n1Cc1ccccc1F [Example 17, 7-(2-Fluorobenzyl)-6-methyl-3-(tetrahydro-2H-pyran-4-yl)imidazo[1,5-a]pyrazin-8(7H)-one] |  |
| 75 | 193 |  | 19 | Cc1cn2c([C@@H]3C[C@@H]3C)ncc2c(=O)n1Cc1cccc(F)c1 (single isomer, unassigned; isomer 1) [35, isomer 1] | % inhibition of PDE9 at 10 microM (PDE9): −11% |
| 27 | 73 | -25 | 52 | Cc1cn2c(C3CCOCC3)ncc2c(=O)n1Cc1ccc(OC(F)F)cc1 [Example 40, 7-(4-(difluoromethoxy)benzyl)-6-methyl-3-(tetrahydro-2H-pyran-4-yl)imidazo[1,5-a]pyrazin-8(7H)-one] |  |
| 52 | 94 | -2 | 7 | Cc1cn2c(C3(C)CC3)ncc2c(=O)n1Cc1cccc(F)c1 [Example 33, 7-(3-fluorobenzyl)-6-methyl-3-(1-methylcyclopropyl)imidazo[1,5-a]pyrazin-8(7H)-one] |  |
| 558 | 1080 | 7 | 93 | Cc1cn2c(C3CCOCC3)ncc2c(=O)n1CCC(C)C [Example 62, 7-isopentyl-6-methyl-3-(tetrahydro-2H-pyran-4-yl)imidazo[1,5-a]pyrazin-8(7H)-one] |  |
| 25 | 11 | -5 | 7 | Cc1cn2c(C3CCOCC3)ncc2c(=O)n1CC1CCCCC1 [Example 4, 7-(Cyclohexylmethyl)-6-methyl-3-(tetrahydro-2H-pyran-4-yl)imidazo[1,5-a]pyrazin-8(7H)-one] |  |
| 68 | 46 | 18 | 10 | Cc1cn2c(C3CCOCC3)ncc2c(=O)n1Cc1ccccc1Cl [Example 19, 7-(2-Chlorobenzyl)-6-methyl-3-(tetrahydro-2H-pyran-4-yl)imidazo[1,5-a]pyrazin-8(7H)-one] |  |

Source: patent US10858362B2, “Imidazopyrazinones as PDE1 inhibitors” (H. Lundbeck A/S, priority 2015, dated 2020)
